The structures appear in SMILES notation.

Chain of Substance-P receptor (P25103 whole entry): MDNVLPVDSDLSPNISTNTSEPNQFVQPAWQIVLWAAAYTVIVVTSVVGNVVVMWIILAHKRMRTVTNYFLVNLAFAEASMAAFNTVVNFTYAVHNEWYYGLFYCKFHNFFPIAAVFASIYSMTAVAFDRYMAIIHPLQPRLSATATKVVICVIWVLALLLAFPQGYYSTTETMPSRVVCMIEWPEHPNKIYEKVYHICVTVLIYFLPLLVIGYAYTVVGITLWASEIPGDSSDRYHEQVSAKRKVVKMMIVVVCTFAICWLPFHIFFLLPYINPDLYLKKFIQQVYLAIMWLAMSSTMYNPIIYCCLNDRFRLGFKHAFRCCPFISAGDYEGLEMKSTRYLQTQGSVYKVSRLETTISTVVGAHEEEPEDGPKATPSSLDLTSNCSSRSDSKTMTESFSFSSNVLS

This experiment addresses Substance-P receptor (Homo sapiens, UniProt P25103). In words: Inhibition of [125I]-Substance P binding to human NK1 receptors in CHO cells. In kind it is cell-based.
What is called IC50 is the concentration that gives 50% inhibition. A higher IC50 goes with weaker potency in that assay. As to `CCCCCN(CCCCC)C(=O)N1CCN(C(=O)N(c2ccccc2)c2ccccc2)[C@H](C(=O)N(C)CCN(C)Cc2ccccc2OC)C1`, the IC50 was 17 nM. Then `CCCCCN(CCCCC)C(=O)N1CCN(C(=O)N(c2ccccc2)c2ccccc2)[C@H](C(=O)NCCNC(C)=O)C1`, with 140 nM.

Molecule `CCCCCN(CCCCC)C(=O)N1CCN(C(=O)N(c2ccccc2)c2ccccc2)[C@H](C(=O)NCCN)C1` displayed an IC50 of 57 nM. Compared with the last molecule, the IC50 is about 2.5-fold lower. Then `CCCCCN(CCCCC)C(=O)N1CCN(C(=O)N(c2ccccc2)c2ccccc2)[C@H](C(=O)O)C1`, with 130 nM. `CCCCCN(CCCCC)C(=O)N1CCN(C(=O)N(c2ccccc2)c2ccccc2)[C@H](C(=O)N(C)CCN(C)C)C1` gave an IC50 of 930 nM. `CCCCCN(CCCCC)C(=O)N1CCN(C(=O)N(c2ccccc2)c2ccccc2)[C@H](C(=O)NCCNCc2ccccc2OC)C1` yielded an IC50 of 9 nM. Then `CCCCCN(CCCCC)C(=O)N1CCN(C(=O)N(c2ccccc2)c2ccccc2)[C@H](CO)C1`, with 280 nM. Under `CCCCCN(CCCCC)C(=O)N1CCN(C(=O)N(c2ccccc2)c2ccccc2)[C@@H](C(=O)O)C1` stands 3000 nM; under `CCCCCN(CCCCC)C(=O)N1CCN(C(=O)N(c2ccccc2)c2ccccc2)[C@H](C(=O)NCCOC)C1`, 267 nM; under `CCCCCN(CCCCC)C(=O)N1CCN(C(=O)N(c2ccccc2)c2ccccc2)[C@H](C(=O)N(C)CCN(C)Cc2cc(C(F)(F)F)cc(C(F)(F)F)c2)C1`, 1080 nM. Then `CCCCCN(CCCCC)C(=O)N1CCN(C(=O)N(c2ccccc2)c2ccccc2)[C@H](C(=O)N(C)CCN(C)Cc2ccccc2)C1`, with 290 nM; and `CCCCCN(CCCCC)C(=O)N1CCN(C(=O)N(c2ccccc2)c2ccccc2)[C@H](C(=O)NCCN(C(C)C)C(C)C)C1`, with 217 nM; and `CCCCCN(CCCCC)C(=O)N1CCN(C(=O)N(c2ccccc2)c2ccccc2)[C@H](C(=O)NCCN(C)Cc2ccccc2OC)C1`, with 9 nM. Regarding `CCCCCN(CCCCC)C(=O)N1CCN(C(=O)N(c2ccccc2)c2ccccc2)[C@H](C(=O)N(C)CCN(C)Cc2cc(C)cc(C)c2)C1`, the IC50 was 200 nM.

`CCCCCN(CCCCC)C(=O)N1CCN(C(=O)N(c2ccccc2)c2ccccc2)[C@H](C(=O)NCCN(C)C)C1`: the IC50 stood at 55 nM. `CCCCCN(CCCCC)C(=O)N1CCN(C(=O)N(c2ccccc2)c2ccccc2)[C@H](C(=O)NCCCN(CC)CC)C1`: the IC50 amounted to 41 nM.

As to `CCCCCN(CCCCC)C(=O)N1CCN(C(=O)N(c2ccccc2)c2ccccc2)[C@H](C(=O)NCCN(CC)CC)C1`, the IC50 was found to be 11 nM. As to `CCCCCN(CCCCC)C(=O)N1CCN(C(=O)N(c2ccccc2)c2ccccc2)CC1`, the IC50 turned out to be 500 nM. `CCCCCN(CCCCC)C(=O)N1CCN(C(=O)N(c2ccccc2)c2ccccc2)[C@H](C(=O)NCC(=O)O)C1` returned a half-maximal inhibitory concentration (IC50) of 597 nM.

The record behind these values is ChEMBL document CHEMBL1127162, “1,4-Diacylpiperazine-2-(S)-[(N-aminoalkyl)carboxamides] as novel, potent substance P receptor antagonists” (Bioorg Med Chem Lett, 1993).
